Laboratory results reported in patent publication US20250002450A1, “CATIONIC STEROID COMPOUNDS, METHOD OF OBTAINING THEREOF, FORMULATIONS COMPRISING THEREOF AND THEIR USES” (UNIVERSIDADE DO PORTO, priority 2021, published 2025).
Converted amounts (≈) assume the structure as drawn.

Experiments:
Assay in all cases: Antibacterial MIC/MBC (broth microdilution)
E. coli SA/2 (ESBL) = type: cell-based, Escherichia coli; conditions: Escherichia coli
Summary of the method: (§1)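 Two-fold serial dilutions in Mueller-Hinton broth 2 (0.062-64 μg/mL), inoculum about 5×10^5 CFU/mL, 20 h at 37 degrees C. MIC was the lowest concentration preventing visible growth; MBC was the lowest concentration killing 99.9% of the inoculum after plating wells without growth on MH agar.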

[1] = tested on: E. coli 2252 (COL-resistant); type: cell-based, Escherichia coli; conditions: Escherichia coli, E. coli 2252 (COL-resistant); for MBC: read-out: MBC; for MIC: read-out: MIC
Summary of the method: as §1

P. aeruginosa 33b (PDR) = type: cell-based, Pseudomonas aeruginosa; conditions: Pseudomonas aeruginosa, P. aeruginosa 33b (PDR); for MBC: read-out: MBC; for MIC: read-out: MIC
Summary of the method: as §1

S. aureus 66/1 (MRSA) = type: cell-based, Staphylococcus aureus; conditions: Staphylococcus aureus; for MBC: read-out: MBC; for MIC: read-out: MIC
Summary of the method: as §1

[2] = tested on: Enterococcuss faecalis ATCC 29212; type: cell-based, Enterococcus faecalis; conditions: for antibacterial activity (in words): E. faecalis ATCC 29212; for MBC / MIC: Enterococcus faecalis, ATCC29212, Enterococcuss faecalis ATCC 29212; for MBC: read-out: MBC; for MIC: read-out: MIC
Summary of the method: as §1

E. faecalis B3/101 (VRE) = type: cell-based, Enterococcus faecalis; conditions: for MBC / MIC: Enterococcus faecalis, E. faecalis B3/101 (VRE); for MBC: read-out: MBC; for MIC: read-out: MIC
Summary of the method: as §1

[3] = tested on: Campylobacter jejuni ATCC 33560; type: cell-based; conditions: ATCC33560, Campylobacter jejuni ATCC 33560; for MBC: read-out: MBC; for MIC: read-out: MIC
[4] = tested on: Staphylococcus aureus ATCC 29213; type: cell-based; conditions: for MBC: ATCC29213, read-out: MBC; for MIC: ATCC29213, read-out: MIC
Summary of the method: as §1

[5] = tested on: Yersinia ruckeri ATCC 29473; type: cell-based; conditions: for MBC: ATCC29473, read-out: MBC; for MIC: ATCC29473, read-out: MIC
Summary of the method: as §1

[6] = tested on: Escherichia coli ATCC 25922; type: cell-based; conditions: ATCC25922, Escherichia coli ATCC 25922; for MBC: read-out: MBC; for MIC: read-out: MIC
Summary of the method: as §1

[7] = tested on: Acinetobacter baumannii ATCC 19606; type: cell-based; conditions: for antibacterial activity (in words): A. baumannii ATCC 19606; for MBC / MIC: ATCC19606, Acinetobacter baumannii ATCC 19606; for MBC: read-out: MBC; for MIC: read-out: MIC
Summary of the method: as §1

[8] = tested on: Klebsiella pneumoniae ATCC 13883; type: cell-based; conditions: ATCC13883, Klebsiella pneumoniae ATCC 13883; for MBC: read-out: MBC; for MIC: read-out: MIC
Summary of the method: as §1

[9] = tested on: Listonella anguilarum ATCC 1924; type: cell-based; conditions: for antibacterial activity (in words): Listonella anguilarum; for MBC / MIC: Listonella anguilarum ATCC 1924; for MBC: read-out: MBC; for MIC: read-out: MIC
Summary of the method: as §1

[10] = tested on: Pseudomonas aeruginosa ATCC 27853; type: cell-based; conditions: ATCC27853, Pseudomonas aeruginosa ATCC 27853; for MBC: read-out: MBC; for MIC: read-out: MIC
Summary of the method: as §1

[11] = tested on: Salmonella enterica serovar Typhimurium CECT 443; type: cell-based; conditions: for MBC: read-out: MBC; for MIC: read-out: MIC
Summary of the method: as §1

`C[C@H](CCC(=O)N1CCN(C(=O)CC[C@H](C)[C@@H]2CC[C@@H]3[C@H]4CC[C@H]5C[C@@H](O)CC[C@@]5(C)[C@@H]4C[C@@H](O)[C@]32C)CC1)[C@H]1CC[C@H]2[C@@H]3CC[C@@H]4C[C@H](O)CC[C@]4(C)[C@H]3C[C@H](O)[C@]12C` [Compound 4, (R)-4-((3R,5R,8R,9S,10S,12S,13R,14S,17R)-3,12-dihydroxy-10,13-dimethylhexadecahydro-1H-cyclopenta[a]phenanthren-17-yl)-1-(4-((S)-4-((3S,5S,8S,9R,10R,12R,13S,14R,17S)-3,12-dihydroxy-10,13-dimethylhexadecahydro-1H-cyclopenta[a]phenanthren-17-yl)pentanoyl)piperazin-1-yl) pentan-1-one] gave an MBC (E. coli SA/2 (ESBL)) of over 64 µg/mL, an MIC (E. coli SA/2 (ESBL)) of over 64 µg/mL and an MBC [1] of over 64 µg/mL. The MIC [1] was over 64 µg/mL, the MBC (P. aeruginosa 33b (PDR)) was over 64 µg/mL and the MIC (P. aeruginosa 33b (PDR)) was over 64 µg/mL. For the same compound, the MBC (S. aureus 66/1 (MRSA)) was over 64 µg/mL, the MIC (S. aureus 66/1 (MRSA)) was 64 µg/mL (≈ 76.6 µM) and the “antibacterial activity (in words)” value [2] was “exhibited antimicrobial activity”. For the same compound, the MBC [2] was 64 µg/mL (≈ 76.6 µM), the MIC [2] was 64 µg/mL (≈ 76.6 µM) and the “antibacterial activity (in words)” value (E. faecalis B3/101 (VRE); E. faecalis B3/101) was “displayed the same effect”. It also gave an MBC (E. faecalis B3/101 (VRE)) of over 64 µg/mL, an MIC (E. faecalis B3/101 (VRE)) of 64 µg/mL (≈ 76.6 µM) and an MBC [3] of over 64 µg/mL. For the same compound, the MIC [3] was over 64 µg/mL, the MBC [4] was over 64 µg/mL and the MIC [4] was 64 µg/mL (≈ 76.6 µM). For the same compound, the “antibacterial activity (in words)” value [5] was “displayed antibacterial activity”, the MBC [5] was 64 µg/mL (≈ 76.6 µM) and the MIC [5] was 64 µg/mL (≈ 76.6 µM). For the same compound, the MBC [6] was over 64 µg/mL, the MIC [6] was over 64 µg/mL and the “antibacterial activity (in words)” value [7] was “displayed an inhibitory effect”. It also gave an MBC [7] of 64 µg/mL (≈ 76.6 µM), an MIC [7] of 64 µg/mL (≈ 76.6 µM) and an MBC [8] of over 64 µg/mL. For the same compound, the MIC [8] was over 64 µg/mL, the “antibacterial activity (in words)” value [9] was “active” and the MBC [9] was 32 µg/mL (≈ 38.3 µM). The MIC [9] was 32 µg/mL (≈ 38.3 µM), the MBC [10] was over 64 µg/mL and the MIC [10] was over 64 µg/mL. For the same compound, the “antibacterial activity (in words)” value [11] was “exhibited antimicrobial activity”, the MBC [11] was 64 µg/mL (≈ 76.6 µM) and the MIC [11] was 64 µg/mL (≈ 76.6 µM).

Work on `C[C@H](CCC(=O)NCCNc1ccccc1)[C@H]1CC[C@H]2[C@@H]3CC[C@@H]4C[C@H](O)CC[C@]4(C)[C@H]3C[C@H](O)[C@]12C` [Compound 8, (R)-4-((3R,5R,8R,9S,10S,12S,13R,14S,17R)-3,12-dihydroxy-10,13-dimethylhexadecahydro-1H-cyclopenta[a]phenanthren-17-yl)-N-(2-(phenylamino)ethyl)pentanamide] yielded an MBC (E. coli SA/2 (ESBL)) of over 64 µg/mL, an MIC (E. coli SA/2 (ESBL)) of over 64 µg/mL and an MBC [1] of over 64 µg/mL. It also gave an MIC [1] of over 64 µg/mL, an MBC (P. aeruginosa 33b (PDR)) of over 64 µg/mL and an MIC (P. aeruginosa 33b (PDR)) of over 64 µg/mL. The MBC (S. aureus 66/1 (MRSA)) was over 64 µg/mL, the MIC (S. aureus 66/1 (MRSA)) was over 64 µg/mL and the MBC [2] was over 64 µg/mL. It also gave an MIC [2] of over 64 µg/mL, an MBC (E. faecalis B3/101 (VRE)) of over 64 µg/mL and an MIC (E. faecalis B3/101 (VRE)) of over 64 µg/mL. For the same compound, the MBC [3] was over 64 µg/mL, the MIC [3] was over 64 µg/mL and the MBC [4] was over 64 µg/mL. The MIC [4] was 16 µg/mL (≈ 31.3 µM), the MBC [5] was over 64 µg/mL and the MIC [5] was over 64 µg/mL. For the same compound, the MBC [6] was over 64 µg/mL, the MIC [6] was over 64 µg/mL and the MBC [7] was over 64 µg/mL. It also gave an MIC [7] of over 64 µg/mL, an MBC [8] of over 64 µg/mL and an MIC [8] of over 64 µg/mL. The MBC [9] was over 64 µg/mL, the MIC [9] was over 64 µg/mL and the MBC [10] was over 64 µg/mL. It also gave an MIC [10] of over 64 µg/mL, an MBC [11] of over 64 µg/mL and an MIC [11] of over 64 µg/mL.

`CCN(CC)CCNC(=O)CC[C@@H](C)[C@H]1CC[C@H]2[C@@H]3CC[C@@H]4C[C@H](O)CC[C@]4(C)[C@H]3C[C@H](O)[C@]12C` [Compound 6, (R)—N-(2-(diethylamino)ethyl)-4-((3R,5R,8R,9S,10S,12S,13R,14S,17R)-3,12-dihydroxy-10,13-dimethylhexadecahydro-1H-cyclopenta[a]phenanthren-17-yl)pentanamide] showed an MBC (E. coli SA/2 (ESBL)) of over 64 µg/mL, an MIC (E. coli SA/2 (ESBL)) of over 64 µg/mL and an MBC [1] of over 64 µg/mL. The MIC [1] was over 64 µg/mL, the MBC (P. aeruginosa 33b (PDR)) was over 64 µg/mL and the MIC (P. aeruginosa 33b (PDR)) was over 64 µg/mL. The MBC (S. aureus 66/1 (MRSA)) was 64 µg/mL (≈ 130 µM), the MIC (S. aureus 66/1 (MRSA)) was 64 µg/mL (≈ 130 µM) and the “antibacterial activity (in words)” value [2] was “exhibited antimicrobial activity”. It also gave an MBC [2] of 64 µg/mL (≈ 130 µM), an MIC [2] of 64 µg/mL (≈ 130 µM) and an MBC (E. faecalis B3/101 (VRE)) of over 64 µg/mL. It also gave an MIC (E. faecalis B3/101 (VRE)) of over 64 µg/mL, an MBC [3] of over 64 µg/mL and an MIC [3] of over 64 µg/mL. It also gave an MBC [4] of 64 µg/mL (≈ 130 µM), an MIC [4] of 64 µg/mL (≈ 130 µM) and an MBC [5] of over 64 µg/mL. The MIC [5] was over 64 µg/mL, the MBC [6] was over 64 µg/mL and the MIC [6] was 64 µg/mL (≈ 130 µM). For the same compound, the “antibacterial activity (in words)” value [7] was “displayed an inhibitory effect”, the MBC [7] was 64 µg/mL (≈ 130 µM) and the MIC [7] was 64 µg/mL (≈ 130 µM). For the same compound, the MBC [8] was over 64 µg/mL, the MIC [8] was over 64 µg/mL and the “antibacterial activity (in words)” value [9] was “active”. The MBC [9] was 64 µg/mL (≈ 130 µM), the MIC [9] was 64 µg/mL (≈ 130 µM) and the MBC [10] was over 64 µg/mL. For the same compound, the MIC [10] was over 64 µg/mL, the MBC [11] was over 64 µg/mL and the MIC [11] was over 64 µg/mL.
